In BindingDB's records for doi:10.1021/jm010294e (Novartis Institute For Biomedical Reasearch, 2001):

These compounds were tested against Apolipoprotein B-100 (Homo sapiens, UniProt P04114) (assay: Inhibition of apolipoprotein B (apoB) secreted by human hepatoma cells (Hep G2) […]).
Sequence of Apolipoprotein B-100 (P04114 whole entry C1422Y): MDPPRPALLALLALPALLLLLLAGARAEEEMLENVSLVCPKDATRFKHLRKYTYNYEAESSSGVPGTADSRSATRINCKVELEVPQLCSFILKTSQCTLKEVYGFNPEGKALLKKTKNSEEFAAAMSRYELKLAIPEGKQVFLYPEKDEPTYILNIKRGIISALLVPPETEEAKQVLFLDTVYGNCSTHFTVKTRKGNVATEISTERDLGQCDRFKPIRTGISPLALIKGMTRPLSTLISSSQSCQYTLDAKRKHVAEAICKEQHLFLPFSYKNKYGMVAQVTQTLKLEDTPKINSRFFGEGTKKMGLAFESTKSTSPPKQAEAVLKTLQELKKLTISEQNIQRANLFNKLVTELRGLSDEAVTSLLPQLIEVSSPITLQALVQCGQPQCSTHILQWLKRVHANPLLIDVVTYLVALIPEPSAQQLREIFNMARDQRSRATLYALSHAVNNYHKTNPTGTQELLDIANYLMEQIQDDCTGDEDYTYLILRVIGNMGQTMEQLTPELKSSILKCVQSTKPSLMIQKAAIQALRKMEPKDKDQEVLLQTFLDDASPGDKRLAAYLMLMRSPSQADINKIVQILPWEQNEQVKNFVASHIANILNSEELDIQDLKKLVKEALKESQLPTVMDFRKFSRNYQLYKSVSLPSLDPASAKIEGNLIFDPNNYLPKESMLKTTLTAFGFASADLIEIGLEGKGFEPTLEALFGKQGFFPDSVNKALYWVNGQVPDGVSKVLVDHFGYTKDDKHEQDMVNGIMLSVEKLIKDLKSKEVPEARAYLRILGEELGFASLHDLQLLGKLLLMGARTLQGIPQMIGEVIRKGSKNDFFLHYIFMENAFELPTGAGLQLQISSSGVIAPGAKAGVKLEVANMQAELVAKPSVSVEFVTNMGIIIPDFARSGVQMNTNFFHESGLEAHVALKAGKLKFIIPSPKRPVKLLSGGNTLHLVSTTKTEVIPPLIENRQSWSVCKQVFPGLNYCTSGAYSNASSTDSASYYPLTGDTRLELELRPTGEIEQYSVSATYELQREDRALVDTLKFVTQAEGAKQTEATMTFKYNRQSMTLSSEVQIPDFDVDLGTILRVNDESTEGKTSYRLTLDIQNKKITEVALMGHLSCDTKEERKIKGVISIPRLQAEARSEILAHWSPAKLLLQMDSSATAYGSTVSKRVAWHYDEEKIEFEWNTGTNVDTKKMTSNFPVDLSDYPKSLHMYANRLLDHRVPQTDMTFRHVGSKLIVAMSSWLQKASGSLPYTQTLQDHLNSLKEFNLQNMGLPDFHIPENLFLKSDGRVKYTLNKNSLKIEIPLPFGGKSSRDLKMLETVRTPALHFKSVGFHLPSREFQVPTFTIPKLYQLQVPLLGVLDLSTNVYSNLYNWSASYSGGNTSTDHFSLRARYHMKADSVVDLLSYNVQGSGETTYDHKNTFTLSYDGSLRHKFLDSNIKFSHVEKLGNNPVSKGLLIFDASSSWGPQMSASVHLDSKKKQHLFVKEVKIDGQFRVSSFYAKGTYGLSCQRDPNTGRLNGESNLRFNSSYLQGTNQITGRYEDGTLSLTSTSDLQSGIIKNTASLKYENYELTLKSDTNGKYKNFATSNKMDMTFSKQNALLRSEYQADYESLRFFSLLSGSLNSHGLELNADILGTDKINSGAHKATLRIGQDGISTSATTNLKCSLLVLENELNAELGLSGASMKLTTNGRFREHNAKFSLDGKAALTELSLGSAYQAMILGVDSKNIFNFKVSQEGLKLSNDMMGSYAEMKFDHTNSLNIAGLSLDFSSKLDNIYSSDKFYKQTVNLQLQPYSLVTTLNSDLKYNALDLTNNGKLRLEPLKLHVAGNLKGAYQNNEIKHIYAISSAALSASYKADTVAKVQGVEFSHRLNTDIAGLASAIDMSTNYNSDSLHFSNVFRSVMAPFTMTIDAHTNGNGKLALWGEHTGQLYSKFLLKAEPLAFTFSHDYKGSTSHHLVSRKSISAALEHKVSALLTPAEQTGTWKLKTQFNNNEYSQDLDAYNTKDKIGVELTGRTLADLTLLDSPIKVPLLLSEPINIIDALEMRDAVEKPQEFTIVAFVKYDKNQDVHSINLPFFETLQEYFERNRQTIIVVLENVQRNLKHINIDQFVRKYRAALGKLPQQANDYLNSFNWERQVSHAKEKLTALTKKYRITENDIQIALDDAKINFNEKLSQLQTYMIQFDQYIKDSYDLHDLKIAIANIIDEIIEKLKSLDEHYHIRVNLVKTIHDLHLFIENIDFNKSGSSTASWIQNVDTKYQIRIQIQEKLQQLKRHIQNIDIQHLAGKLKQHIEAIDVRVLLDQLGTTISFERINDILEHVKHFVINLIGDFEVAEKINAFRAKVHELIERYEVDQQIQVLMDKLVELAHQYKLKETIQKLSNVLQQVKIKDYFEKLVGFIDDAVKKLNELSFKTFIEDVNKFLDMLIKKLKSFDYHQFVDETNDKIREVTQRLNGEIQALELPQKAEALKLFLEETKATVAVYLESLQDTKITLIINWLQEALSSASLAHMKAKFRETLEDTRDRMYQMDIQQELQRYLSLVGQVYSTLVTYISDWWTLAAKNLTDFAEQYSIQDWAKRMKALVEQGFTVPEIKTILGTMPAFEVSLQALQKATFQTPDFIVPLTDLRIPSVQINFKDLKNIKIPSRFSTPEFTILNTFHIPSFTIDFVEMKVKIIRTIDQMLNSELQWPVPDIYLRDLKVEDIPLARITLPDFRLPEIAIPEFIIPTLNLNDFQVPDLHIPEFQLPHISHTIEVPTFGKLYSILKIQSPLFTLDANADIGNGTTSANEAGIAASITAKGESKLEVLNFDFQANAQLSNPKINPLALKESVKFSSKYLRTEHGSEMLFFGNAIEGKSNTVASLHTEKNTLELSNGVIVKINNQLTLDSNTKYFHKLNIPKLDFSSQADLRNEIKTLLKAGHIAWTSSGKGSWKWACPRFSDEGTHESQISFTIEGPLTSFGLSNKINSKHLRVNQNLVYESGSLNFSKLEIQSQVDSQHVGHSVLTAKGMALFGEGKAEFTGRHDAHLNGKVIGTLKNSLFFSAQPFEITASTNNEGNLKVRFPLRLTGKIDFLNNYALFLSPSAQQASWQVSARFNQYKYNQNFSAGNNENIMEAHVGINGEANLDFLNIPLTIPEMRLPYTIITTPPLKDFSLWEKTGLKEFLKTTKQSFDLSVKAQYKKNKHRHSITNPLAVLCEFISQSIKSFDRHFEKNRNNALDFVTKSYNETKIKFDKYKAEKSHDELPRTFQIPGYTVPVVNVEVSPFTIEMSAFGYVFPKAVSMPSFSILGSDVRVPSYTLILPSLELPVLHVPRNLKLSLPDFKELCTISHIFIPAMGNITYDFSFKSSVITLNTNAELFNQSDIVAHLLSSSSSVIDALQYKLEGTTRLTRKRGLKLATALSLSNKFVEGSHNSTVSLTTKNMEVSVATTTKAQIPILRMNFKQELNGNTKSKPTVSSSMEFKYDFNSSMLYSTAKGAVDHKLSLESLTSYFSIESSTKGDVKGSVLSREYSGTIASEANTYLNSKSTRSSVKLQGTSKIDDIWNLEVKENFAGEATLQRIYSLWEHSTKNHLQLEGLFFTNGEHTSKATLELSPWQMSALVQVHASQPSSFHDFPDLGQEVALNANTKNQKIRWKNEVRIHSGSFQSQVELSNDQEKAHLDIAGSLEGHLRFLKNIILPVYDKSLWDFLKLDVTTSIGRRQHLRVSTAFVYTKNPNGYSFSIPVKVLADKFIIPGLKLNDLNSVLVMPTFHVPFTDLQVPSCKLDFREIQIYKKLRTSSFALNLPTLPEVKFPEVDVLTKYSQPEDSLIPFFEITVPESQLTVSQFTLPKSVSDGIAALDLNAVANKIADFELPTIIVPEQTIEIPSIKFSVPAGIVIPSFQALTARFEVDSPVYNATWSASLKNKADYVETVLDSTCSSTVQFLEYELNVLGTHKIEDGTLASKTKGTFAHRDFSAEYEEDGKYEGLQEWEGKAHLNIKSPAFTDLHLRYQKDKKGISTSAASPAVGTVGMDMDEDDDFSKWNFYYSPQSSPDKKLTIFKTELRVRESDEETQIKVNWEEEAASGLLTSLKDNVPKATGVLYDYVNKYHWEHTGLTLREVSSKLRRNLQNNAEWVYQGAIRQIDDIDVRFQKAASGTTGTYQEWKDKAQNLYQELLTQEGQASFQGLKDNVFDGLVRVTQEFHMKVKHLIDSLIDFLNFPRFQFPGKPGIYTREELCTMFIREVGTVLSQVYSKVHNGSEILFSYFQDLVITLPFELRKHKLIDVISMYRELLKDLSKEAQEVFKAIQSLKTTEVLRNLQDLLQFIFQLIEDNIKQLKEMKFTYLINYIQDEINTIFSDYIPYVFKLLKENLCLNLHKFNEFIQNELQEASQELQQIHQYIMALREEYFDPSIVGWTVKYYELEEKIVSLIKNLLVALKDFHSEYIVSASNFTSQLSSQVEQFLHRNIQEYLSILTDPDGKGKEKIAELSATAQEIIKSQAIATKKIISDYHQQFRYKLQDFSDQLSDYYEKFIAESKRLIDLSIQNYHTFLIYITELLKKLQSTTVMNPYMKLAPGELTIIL
`COc1cccc(C(=O)Nc2ccc3c(c2)CC(NS(=O)(=O)c2ccccc2)C3)c1-c1ccc(Cl)cc1` (stereo unspecified) [4'-Chloro-6-methoxy-biphenyl-2-carboxylic acid (2-benzenesulfonylamino-indan-5-yl)-amide] was tested, and the IC50 was 2 nM.
Compound `COc1cccc(C(=O)Nc2ccc3c(c2)CC(NS(C)(=O)=O)C3)c1-c1ccc(Cl)cc1` (stereo unspecified) [4'-Chloro-6-methoxy-biphenyl-2-carboxylic acid (2-methanesulfonylamino-indan-5-yl)-amide] has an IC50 of 15 nM.
In the case of `Cc1cccc(C(=O)Nc2ccc3c(c2)CC(NS(=O)(=O)c2ccccc2)C3)c1-c1ccc(Cl)cc1` (stereo unspecified) [4'-Chloro-6-methyl-biphenyl-2-carboxylic acid (2-benzenesulfonylamino-indan-5-yl)-amide], the IC50 is reported as 2.4 nM.
In the case of `Cc1cccc(C(=O)Nc2ccc3c(c2)CC(NS(C)(=O)=O)C3)c1-c1ccc(Cl)cc1` (stereo unspecified) [4'-Chloro-6-methyl-biphenyl-2-carboxylic acid (2-methanesulfonylamino-indan-5-yl)-amide], the IC50 is reported as 6.6 nM.
For `Cc1cccc(C(=O)Nc2ccc3c(c2)CCC(NS(C)(=O)=O)CC3)c1-c1ccc(Cl)cc1` (stereo unspecified) [4'-Chloro-6-methyl-biphenyl-2-carboxylic acid (7-methanesulfonylamino-6,7,8,9-tetrahydro-5H-benzocyclohepten-2-yl)-amide], the IC50 was 5 nM.
Compound `Cc1cccc(C(=O)Nc2ccc3c(c2)CC(CNS(C)(=O)=O)C3)c1-c1ccc(Cl)cc1` (stereo unspecified) [4'-Chloro-6-methyl-biphenyl-2-carboxylic acid [2-(methanesulfonylamino-methyl)-indan-5-yl]-amide] has an IC50 of 16 nM.
With `Cc1cccc(C(=O)Nc2ccc3c(c2)CC(NS(=O)(=O)c2cccs2)C3)c1-c1ccc(Cl)cc1` (stereo unspecified) [4'-Chloro-6-methyl-biphenyl-2-carboxylic acid [2-(thiophene-2-sulfonylamino)-indan-5-yl]-amide] the IC50 was 3 nM.
`Cc1cccc(C(=O)Nc2ccc3c(c2)CC(NS(=O)(=O)c2ccccc2)C3)c1-c1ccc(C#N)cc1` (stereo unspecified) [4'-Cyano-6-methyl-biphenyl-2-carboxylic acid (2-benzenesulfonylamino-indan-5-yl)-amide] gave an IC50 of 5.5 nM.
In the case of `Cc1cccc(C(=O)Nc2ccc3c(c2)CC(NS(=O)(=O)c2ccccc2)C3)c1-c1ccc(F)cc1` (stereo unspecified) [4'-Fluoro-6-methyl-biphenyl-2-carboxylic acid (2-benzenesulfonylamino-indan-5-yl)-amide], the IC50 is reported as 1.2 nM.
Work on `Cc1cccc(C(=O)Nc2ccc3c(c2)CC(NS(C)(=O)=O)C3)c1-c1ccc(F)cc1` (stereo unspecified) [4'-Fluoro-6-methyl-biphenyl-2-carboxylic acid (2-methanesulfonylamino-indan-5-yl)-amide] yielded an IC50 of 8.3 nM.
Work on `Cc1cccc(C(=O)Nc2ccc3c(c2)CC(NS(=O)(=O)c2cccs2)C3)c1-c1ccc(F)cc1` (stereo unspecified) [4'-Fluoro-6-methyl-biphenyl-2-carboxylic acid [2-(thiophene-2-sulfonylamino)-indan-5-yl]-amide] yielded an IC50 of 1.4 nM.
For `CC(=O)NC1Cc2ccc(NC(=O)c3ccccc3-c3ccc(C(F)(F)F)cc3)cc2C1` (stereo unspecified) [4'-Trifluoromethyl-biphenyl-2-carboxylic acid (2-acetylamino-indan-5-yl)-amide], the IC50 was 120 nM.
`O=C(Nc1ccc2c(c1)CC(NS(=O)(=O)c1ccccc1)C2)c1ccccc1-c1ccc(C(F)(F)F)cc1` (stereo unspecified) [4'-Trifluoromethyl-biphenyl-2-carboxylic acid (2-benzenesulfonylamino-indan-5-yl)-amide] was tested, and the IC50 was 1.3 nM.
`O=C(Nc1ccc2c(c1)C[C@@H](NS(=O)(=O)c1ccccc1)C2)c1ccccc1-c1ccc(C(F)(F)F)cc1` [4'-Trifluoromethyl-biphenyl-2-carboxylic acid (2-benzenesulfonylamino-indan-5-yl)-amide] showed an IC50 of 42 nM.
In the case of `O=C(NC1Cc2ccc(NC(=O)c3ccccc3-c3ccc(C(F)(F)F)cc3)cc2C1)c1ccccc1` (stereo unspecified) [4'-Trifluoromethyl-biphenyl-2-carboxylic acid (2-benzoylamino-indan-5-yl)-amide], the IC50 is reported as 270 nM.
With `O=C(Nc1ccc2c(c1)CC(NCc1ccccc1)C2)c1ccccc1-c1ccc(C(F)(F)F)cc1` (stereo unspecified) [4'-Trifluoromethyl-biphenyl-2-carboxylic acid (2-benzylamino-indan-5-yl)-amide] the IC50 was 340 nM.
